# Numbers after ± are expanded uncertainties.
# Tests used:
# [1] = for viscosity / mass density: 101.33 kPa, Liquid; for viscosity: Cone and plate viscometry; for mass density: Vibrating tube method
# [2] = refractive index (Na D-line) (dimensionless); details: 101.33 kPa, Liquid, Standard Abbe refractometry
compound,measurement,setting,value
NC(=O)Cn1cc[n+](CCCCn2cc[n+](CC(N)=O)c2)c1.O=S(=O)([N-]S(=O)(=O)C(F)(F)F)C(F)(F)F.O=S(=O)([N-]S(=O)(=O)C(F)(F)F)C(F)(F)F,viscosity,[1]; 298.15 K,8689 ± 1200 mPa·s
same,mass density,[1]; 298.15 K,1590.17 ± 14 kg/m3
same,viscosity,[1]; 303.15 K,4730 ± 580 mPa·s
same,mass density,[1]; 303.15 K,1585.41 ± 14 kg/m3
same,viscosity,[1]; 308.15 K,3285 ± 370 mPa·s
same,mass density,[1]; 308.15 K,1580.62 ± 14 kg/m3
same,viscosity,[1]; 313.15 K,2365 ± 250 mPa·s
same,mass density,[1]; 313.15 K,1575.98 ± 14 kg/m3
same,viscosity,[1]; 318.15 K,1824 ± 180 mPa·s
same,mass density,[1]; 318.15 K,1572.04 ± 14 kg/m3
same,viscosity,[1]; 323.15 K,1517 ± 140 mPa·s
same,mass density,[1]; 323.15 K,1567.22 ± 13 kg/m3
same,viscosity,[1]; 328.15 K,1323 ± 120 mPa·s
same,mass density,[1]; 328.15 K,1562.31 ± 13 kg/m3
same,viscosity,[1]; 333.15 K,1221 ± 110 mPa·s
same,mass density,[1]; 333.15 K,1557.66 ± 13 kg/m3
same,viscosity,[1]; 338.15 K,1129 ± 96 mPa·s
same,mass density,[1]; 338.15 K,1552.61 ± 13 kg/m3
same,viscosity,[1]; 343.15 K,1098 ± 93 mPa·s
same,mass density,[1]; 343.15 K,1548.03 ± 13 kg/m3
same,Glass transition temperature,"[1]; Glass, DTA",-40 ± 6 °C
same,refractive index,[2]; 298.15 K,1.4546 ± 0.0011
same,refractive index,[2]; 303.15 K,1.4532 ± 0.0011
same,refractive index,[2]; 308.15 K,1.4518 ± 0.0011
same,refractive index,[2]; 313.15 K,1.4504 ± 0.0011
same,refractive index,[2]; 318.15 K,1.4491 ± 0.0011
same,refractive index,[2]; 323.15 K,1.4477 ± 0.0011
same,refractive index,[2]; 328.15 K,1.4464 ± 0.0011
same,refractive index,[2]; 333.15 K,1.4451 ± 0.0011
same,refractive index,[2]; 338.15 K,1.4439 ± 0.0011
same,refractive index,[2]; 343.15 K,1.443 ± 0.0011

# From the NIST ThermoML archive (doi:10.1021/je3000876)
